Test results taken from patent US10201552B2, “Method of increasing the bioavailability of an HIV drug” (HOWARD UNIVERSITY, priority 2013, dated 2019).

How the values were obtained:
[1] = administered orally as disoproxil ester prodrug; cited from earlier work
[2] = test system: Unactivated Human T-Cells; test: Uptake of radio labeled Tenofovir in human T-cells in presence and absence of ABC efflux pump inhibitors; type: cell-based; details: with specific MRP, BCRP and Pgp inhibitors vs without
Procedure: ABC efflux pump inhibitors. Briefly, human T-cells in the culture media (1 million/mL) were transferred to 15 mL centrifuge tubes. Radio labeled Tenofovir was added to the control tube and radio labeled Tenofovir along with defined concentrations of efflux pump inhibitors were added to the treatment tubes. The tubes were incubated for 15 minutes under culture conditions (37° C., 5% CO2/95% relative humidity). Following incubation, the tubes were centrifuged at 2000 rpm for 15 min and the supernatant is discarded. Ice cold stop solution (210 mM KCl, 2 mM HEPES [pH 7.4]) was added to stop the reaction. The cells were resuspended in stop solution to ensure washing and centrifuged at 2000 rpm for 15 min. The treatment with stop solution, washing and centrifugation is repeated to ensure through washing. 1 mL lysis solution (0.3 M NaOH, 0.1% Triton X-100) was added to the cell pellet and samples and incubated overnight to ensure complete cell lysis. Intracellular concentrations were analyzed by Beckman LS 6500 automated Scintillation Counter.

## C[C@H](Cn1cnc2c(N)ncnc21)OCP(=O)(O)O [Tenofovir]
[1]
  bioavailability: ≥ 20%
[2]
  intracellular accumulation of Tenofovir: significant increase
